The values that follow are results of earlier work, collected in US11124883B2, “Method for inhibiting metal corrosion using a benzimidazole-containing composition” (priority 2017, dated 2021).

The conditions of the data set: at 20° C., according to DrugBank.

With `c1ccc2[nH]cnc2c1` [unsubstituted benzimidazole, benzimidazole], the water solubility entry is “about 20 g/L”.
